Results on one compound are retold here after patent EP2532368A1, “"Composition for oral delivery of biologically-active substances"” (Peluso, Gianfranco, priority 2011, dated 2012).

The structures appear in SMILES notation.

In this assay the test system is DSS-induced colitis. Description: DSS-induced colitis in mice. Type of assay: in vivo, C57BL/6 mice. Conditions: 3% DSS in water, daily gavage for 7 days.

As to `Nc1ccc(O)c(C(=O)O)c1` [5-ASA, 5-Aminosalicylic acid], the weight loss result is listed as “does not reduce the severity of weight loss”. In addition, for the setting “colon”, the “Intestinal myeloperoxidase (MPO) activity” value was “has no effect on the basal MPO levels”.
